The subject of one test is hippocampal CA1 neurons. As to conditions: cited from earlier work.
Another test deals with nsPEF-exposed cells. As to the kind of experiment: Whole-cell patch clamp of membrane conductance/resistance after nsPEF exposure. The class given is cell-based. On the procedure: Experiments were performed in GH3 cells (a murine pituitary cell line) and HeLa cells (human epithelial cancer), both obtained from American Type Culture Collection (ATCC, Manassas, Va.) and cultured according to their recommendations. Cells were grown in 75-cm2 flasks at 37° C. with 5% CO2 in air. GH3 cells were cultured in Ham's F12K medium supplemented with 2.5% fetal bovine serum (FBS) and 15% horse serum (Atlanta Biologicals, Norcross, Ga.). HeLa cells were propagated in Eagle minimum essential medium with 10% FBS. The cultures also contained 1% L-glutamine and 1% penicillin/streptomycin (Mediatech Cellgro, Herndon, Va.). For passaging, cells were removed from the substrate with 2-3 ml of 0.25% Trypsin with 2.21 mM EGTA. The cultures were maintained in the logarithmic stage of growth and used at passages 3-15. For a passage immediately preceding the experiments, cells were grown attached to 8- or 10-nun diameter glass cover slips in 35-mm Petri dishes. The cover slips were pretreated with poly-1-lysine (Sigma-Aldrich, St. Louis, Mo.) to improve cell adherence.
These pairs were formulated to explore, in the first approximation, how different ion substitutions would affect Gm and the reversal potential (Erev) after nsPEF exposure. Two pairs (Cs/Na and Cs/Ba-TEA) were also used to explore nsPEF effects on voltage-gated Na^+ and Ca^2+ channels, respectively. In general, solution pairs from the top to the bottom of the Table 1 contain diminishing amounts and variety of monovalent ions, i.e., K and/or Na were replaced with larger cs^+, TEA^+, or NMDG^+. The contents of anions (C1 and HEPES) were kept almost constant and the same in bath and pipette solutions, except for the last pair, where most of the pipette C1 was replaced with HEPES^−. The pH of pipette and bath solutions was adjusted to 7.4 and 7.2, respectively; the ionic contents shown in Table 1 already include any extra amounts of ions added as a base or acid for pH adjustment. The osmolality of all solutions was between 290 and 320 mOsm, as measured with a freezing point microosmometer (Advanced Instruments, Inc., Norwood, Mass., USA).
Patch clamp recording: Cells on a cover slip were transferred into a glass-bottomed chamber (Warner Instruments, Hamden, Conn.) mounted on a motorized stage (Prior Scientific Inc., Rockland, Mass.) of an IX71 FluoView™ 300 confocal laser scanning microscope. […] The data from these experiments were analyzed differently (see below). […]
Once the whole-cell configuration was formed, the membrane resistance and capacitance (Rm and Cm) were measured using the Membrane Test utility of pClamp1 0 software. […] The membrane potential (MP) was measured by switching briefly from voltage to current clamp mode at I=0. […]
(In patch-clamp work, channel activity is measured electrically.)

The next test has as its system liver cells. Particulars: oxidative stress-activated NSCCs; cited from earlier work.
A further test deals with GH3 or HeLa cells. As to the kind of experiment: PI uptake, positive control for permeabilization. It counts as cell-based. As to conditions: 0.03% added into the bath. On the procedure:
Moreover, the cells remained impermeable to PI even after extra-long trains of 200 pulses, which caused necrotic changes in cells morphology, and even when the observation period was extended to 30-60 min after the exposure.

The values that follow come from patent US8688227B2, “Suction electrode-based medical instrument and system including the medical instrument for therapeutic electrotherapy” (Old Dominion Research Foundation, priority 2007, dated 2014).

Read-outs that look alike come from different tables or passages of the source.

In the case of `N.N.N.N.N.N.N.N.N.N.N.N.N.N.[Cl-].[Cl-].[Cl-].[Cl-].[Cl-].[Cl-].[O-2].[O-2].[Ru+3].[Ru+3].[Ru+4]` [ruthenium red], in the test on hippocampal CA1 neurons (1 ilM), the “swelling and other deleterious effects of oxygen-glucose deprivation” value (“swelling and other deleterious effects” for short) was “reduced swelling”. Besides, in the test with nsPEF-exposed cells (10 p.M in bath of K/Na pair, prior to 1 or 5 pulses), the “membrane conductance increase by nsPEF” value is “neither enhanced nor inhibited”. In addition, the “effect on control (sham-exposed) cells” value with nsPEF-exposed cells (50 and 200 μM in bath of K/Na pair) is on record as “no apparent effect”. For the same compound, the “condition of nsPEF-exposed cells” value with nsPEF-exposed cells (50 and 200 μM in bath of K/Na pair, prior to 1 or 5 pulses) was “worsened the condition”.

On to `[Cl][Gd]([Cl])[Cl]` [Gd^3+], for which, in the test on hippocampal CA1 neurons (100 AM), the “swelling and other deleterious effects” value is listed as “reduced swelling”. The “protective effect against nsPEF” value in the test with nsPEF-exposed cells (0.2 mM, first trials) is on record as “no protection”. Moreover, the “number of necrotic cells” value with liver cells is recorded as “sharply decreased”.

Consider `C[C@@H]1CC[C@@]2(OC1)O[C@H]1[C@@H](O)[C@H]3[C@@H]4CC[C@H]5C[C@@H](O[C@@H]6O[C@H](CO)[C@H](O[C@@H]7O[C@H](CO)[C@@H](O)[C@H](O[C@@H]8OC[C@@H](O)[C@H](O)[C@H]8O)[C@H]7O[C@@H]7O[C@H](CO)[C@H](O)[C@H](O[C@@H]8O[C@H](CO)[C@@H](O)[C@H](O)[C@H]8O)[C@H]7O)[C@H](O)[C@H]6O)[C@H](O)C[C@]5(C)[C@H]4CC[C@]3(C)[C@H]1[C@@H]2C` [digitonin], for which the “time to bright PI fluorescence after addition” value with GH3 or HeLa cells was 1 to 2 min. Also, the “permeabilization, PI fluorescence” value in the test with GH3 or HeLa cells (PI in the medium) is listed as “bright PI fluorescence”.

As to `[Cl][La]([Cl])[Cl]` [La^3+], in the test with hippocampal CA1 neurons (100 AM), the “swelling and other deleterious effects” value was “reduced swelling”.
